Assay results reported in patent publication US20250281456A1, “METHODS OF TREATING CANCER BY INHIBITING BACTERIAL DNAK TO RESTORE ACTIVITIES OF ANTICANCER DRUGS” (University of Maryland, Baltimore, priority 2022, published 2025).
Where a SMILES comes first, the peptide text is derived from it. [ ]: non-standard residue; d: D form. Ac6c = NC1(C(=O)O)CCCCC1

Experiments:
[1] = molecular target: eM-DnaK (Mycoplasma fermentans DnaK); test: Surface plasmon resonance (SPR) binding of ARV-1502 to immobilized eM-DnaK; details: 2274.9 RU eM-DnaK on CM5 chip, HBS-EP, 25° C., preliminary kinetic analysis
Description: (§1) FIG. 17. A) Direct binding of eM-DnaK to ARV-1502 as determined by surface plasmon resonance (SPR). Association of ARV-1502 at different concentrations on 2274.9 response units of eM-DnaK immobilized on a CM5 biosensor chip proceeded at a flow rate of […] for 250 sec, followed by a 600 sec dissociation in HBS-EP.
Surface plasmon resonance (SPR) binding studies of DnaK and ARV-1502 were performed at 25° C. on a BIAcore T100 System (BIAcore, Inc., Piscataway, NY). We used as assay buffer HBS-EP, containing 10 mM HEPES, 150 mM NaCl, 0.05% surfactant P20, pH 7.4, 3 mM EDTA. DnaK (2274.9 RUs) was immobilized on CM5 sensor chips using the amine-coupling chemistry recommended by the manufacturer. Analytes were introduced into the flow cells at 35 μl/min in the running buffer. Association and dissociation were assessed for 250 seconds and 600 seconds. Resonance signals were corrected for nonspecific binding by subtracting the background of the control flow-cell. After each analysis, the sensor chip surfaces were regenerated with 10 mM glycine solution (pH 2.0) with MgCl 1M and equilibrated with the buffer before the next injection.

AGS cells = test: cells
Description: (§2) FIG. 11. […] Parallel wells of untreated cells were used as negative control. Cell viability was assessed by using the trypan blue assay. Percentage of alive cells for each treatment are calculated as percentage using the untreated cell as reference. […] Statistical differences were tested using Student's t test. All statistical tests were two sided. p=***<0.001, **<0.01, *<0.05, ns=not significant.
as §2, with “14.” for “11.”, “p=*<0.05,” for “p=***<0.001,”, “***<0.001.” for “*<0.05, ns=not significant.”
(§3) To determine the effects of eM and eF-DnaKs on HCT116 and AGS cells lines treated with different anti-cancer drugs, cells were plated 200,000 cells/well in 6-wells plates. After 24 h, both eM-DnaK and eF-DnaK were added to the cultures at a concentration of 10 ug/ml. […] Parallel cultures of untreated cells were the negative controls. […] After 48 h of treatment with the anti-cancer drugs, cell monolayers were washed in PBS, trypsinized and cell viability was measured using the trypan blue assay. The trypan blue exclusion assay allows for a direct identification and enumeration of live (unstained) and dead (blue) cells in the given population.
(§4) More in detail, we pre-treated both exogenous DnaKs with ARV-1502 (25 μg/ml) before adding them to the culture of HCT116 or AGS cells. After 3 h of incubation the complex was added to the culture. After 24 h the cells were treated with the anti-cancer drugs and then subjected to count with trypan blue as previously described. Parallel cultures of cells treated with the drugs and DnaKs not complexed with ARV-1502 were used as control.

HCT116 cells [2] = test: cells
Description: as §2
as §2, with “14.” for “11.”, “p=*<0.05,” for “p=***<0.001,”, “***<0.001.” for “*<0.05, ns=not significant.”
as §3, §4

HCT116 cells [3] = test: Western blot of eM-DnaK entry into HCT116 cells after incubation with ARV-1502; assay type: cell-based, human; details: eM-DnaK incubated 3 hours with ARV-1502, added to cells 24 hours, then cisplatin 48 hours
Description: as §1
Western blot was performed to verify the expression of DnaK in the mouse primary cancer cells, in the internalization of the exogenous DnaKs and to validate DnaK binding with ARV-1502. […] After 72 h since eM-DnaK treatment, cell monolayers were washed in cold PBS, trypsinized and resuspended in RIPA lysis buffer (Sigma-Aldrich, St. Louis, MO) in the presence of protease inhibitors (Sigma-Aldrich, St. Louis, MO). The protein concentration was measured by the Bradford assay (Bio-Rad Laboratories, Hercules, CA). Thirty micrograms of protein were resolved by SDS/PAGE, transferred to a polyvinylidene difluoride (PVDF) membrane using trans-blot turbo transfer system (Bio-Rad Laboratories, Hercules, CA), blocked in 5% nonfat dried milk in Tris-Buffered Saline (TBS) and probed overnight with either a mouse mAb against the V5 tag (#R960-25, Thermo Fisher Scientific, Walthman, MA) to detect the presence of eM-DnaK or a mouse mAb against […] (8H10D10) (#3700, Cell Signaling Technology, Danvers, MA). […]

[4] = tested on: primary murine cancer cells constitutively expressing DnaK
Escherichia coli DnaK = Escherichia coli DnaK (Escherichia coli, UniProt P0A6Y8); details: previously demonstrated; cited from earlier work
human Hsp70 = human Hsp70 (Homo sapiens, UniProt P0DMV8); details: previously demonstrated; cited from earlier work
Sequence of human Hsp70 (P0DMV8 whole entry): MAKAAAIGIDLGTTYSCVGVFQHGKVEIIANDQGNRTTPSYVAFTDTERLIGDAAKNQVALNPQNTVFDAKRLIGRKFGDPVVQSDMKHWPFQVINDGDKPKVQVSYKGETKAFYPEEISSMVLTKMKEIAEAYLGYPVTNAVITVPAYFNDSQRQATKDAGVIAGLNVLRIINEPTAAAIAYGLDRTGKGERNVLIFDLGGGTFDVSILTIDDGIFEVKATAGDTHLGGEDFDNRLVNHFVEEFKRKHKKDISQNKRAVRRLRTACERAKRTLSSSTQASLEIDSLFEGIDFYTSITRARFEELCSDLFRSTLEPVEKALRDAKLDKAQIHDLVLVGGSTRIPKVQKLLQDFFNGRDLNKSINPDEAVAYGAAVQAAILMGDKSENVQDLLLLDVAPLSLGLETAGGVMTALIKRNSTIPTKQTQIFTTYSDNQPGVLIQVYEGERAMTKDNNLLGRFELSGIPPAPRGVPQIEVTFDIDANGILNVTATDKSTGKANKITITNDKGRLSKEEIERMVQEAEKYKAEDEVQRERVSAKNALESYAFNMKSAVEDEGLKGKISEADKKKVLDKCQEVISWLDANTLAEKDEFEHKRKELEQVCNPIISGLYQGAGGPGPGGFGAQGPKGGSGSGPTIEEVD

Sequence of Escherichia coli DnaK (P0A6Y8 whole entry): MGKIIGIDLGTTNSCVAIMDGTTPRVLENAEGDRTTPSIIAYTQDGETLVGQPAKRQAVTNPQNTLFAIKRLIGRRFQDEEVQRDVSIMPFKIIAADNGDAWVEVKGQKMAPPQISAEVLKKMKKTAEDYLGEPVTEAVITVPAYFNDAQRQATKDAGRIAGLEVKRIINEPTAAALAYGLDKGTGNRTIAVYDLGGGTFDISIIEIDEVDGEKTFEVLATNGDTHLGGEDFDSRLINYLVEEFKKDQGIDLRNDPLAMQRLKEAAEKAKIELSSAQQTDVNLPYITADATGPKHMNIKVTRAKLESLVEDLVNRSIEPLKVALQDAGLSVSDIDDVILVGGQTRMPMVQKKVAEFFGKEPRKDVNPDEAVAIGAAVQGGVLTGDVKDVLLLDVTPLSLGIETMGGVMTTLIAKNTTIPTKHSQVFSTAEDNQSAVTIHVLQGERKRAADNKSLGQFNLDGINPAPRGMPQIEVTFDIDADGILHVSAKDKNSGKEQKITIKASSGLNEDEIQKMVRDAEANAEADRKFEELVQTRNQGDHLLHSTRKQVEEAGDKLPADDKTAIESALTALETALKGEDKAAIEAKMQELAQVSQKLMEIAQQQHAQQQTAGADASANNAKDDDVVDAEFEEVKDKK

For `CC(C)C[C@H](NC(=O)[C@H](Cc1ccc(O)cc1)NC(=O)[C@@H]1CCCN1C(=O)[C@H](CCCNC(=N)N)NC(=O)[C@@H]1CCCN1C(=O)[C@H](CCCCN)NC(=O)[C@H](CC(=O)O)NC(=O)[C@@H]1CCCN1C(=O)[C@H](CCCNC(=N)N)NC(=O)C1(N)CCCCC1)C(=O)N1CCC[C@H]1C(=O)N[C@@H](CCCNC(=N)N)C(=O)N1CCC[C@H]1C(=O)N[C@@H](CCCNC(=N)N)C(=O)N1CCC[C@H]1C(=O)N1CCC[C@H]1C(=O)N[C@@H](CCCNC(=N)N)C(=O)N1CCC[C@H]1C(=O)N[C@H](C(=O)N[C@@H](CCCNC(=N)N)C(N)=O)C(C)C` [ARV-1502] (H-[Ac6c]RPDKPRPYLPRPRPPRPVR-NH2; N-terminus and C-terminus assumed), the Kd [1] was 1900 nM, the “reduction in cell viability” value (AGS cells; ARV-1502 alone, on average (data not shown)) was 5-8% and the “restoration of anti-cancer activity of cisplatin and 5FU” value (shortened to “restoration”) (AGS cells; in the presence of eF-DnaK pre-treated with ARV-1502 (25 μg/ml)) was “able to restore the drugs' anti-cancer activity”. For the same compound, the “restoration” value (AGS cells; in the presence of eM-DnaK pre-treated with ARV-1502 (25 μg/ml)) was “restoration of the original anti-cancer activity of each drug”, the “reduction in cell viability” value (HCT116 cells [2]; HCT116, ARV-1502 alone, on average (data not shown)) was 5-8% and the “restoration” value (HCT116 cells [2]; HCT116, in the presence of eF-DnaK pre-treated with ARV-1502 (25 μg/ml)) was “able to restore the drugs' anti-cancer activity”. For the same compound, the “restoration” value (HCT116 cells [2]; HCT116, in the presence of eM-DnaK pre-treated with ARV-1502 (25 μg/ml)) was “restoration of the original anti-cancer activity of each drug”, the “eM-DnaK entry into HCT116 cells” value (HCT116 cells [3]) was “does not prevent eM-DnaK entry into HCT116 cells” and the inhibitory effect ([4]; ARV-1502 alone) was 11%. For the same compound, the improved anti-cancer effect ([4]; ARV-1502 with cisplatin or 5FU versus drug alone, for both drugs) was 25%, the “DnaK binding and ATPase activity” value (Escherichia coli DnaK) was “bind the Escherichia coli DnaK substrate-binding domain and to reduce its ATPase activity” and the “interaction with human Hsp70” value (human Hsp70) was “without interacting with human Hsp70”.
